The record followed here is patent publication US12492188B2, “1H-benzo[D]imidazole derivatives as TLR9 inhibitors for the treatment of fibrosis” (BRISTOL-MYERS SQUIBB COMPANY, priority 2020, dated 2025).

Type in all cases: cell-based
One experiment concerns the target T1, human TLR9 (Homo sapiens, UniProt Q9NR96).
T1 construct: host or cells: HEK-Blue cells (HEK293-derived reporter line)
T1 sequence (Q9NR96 26-1032): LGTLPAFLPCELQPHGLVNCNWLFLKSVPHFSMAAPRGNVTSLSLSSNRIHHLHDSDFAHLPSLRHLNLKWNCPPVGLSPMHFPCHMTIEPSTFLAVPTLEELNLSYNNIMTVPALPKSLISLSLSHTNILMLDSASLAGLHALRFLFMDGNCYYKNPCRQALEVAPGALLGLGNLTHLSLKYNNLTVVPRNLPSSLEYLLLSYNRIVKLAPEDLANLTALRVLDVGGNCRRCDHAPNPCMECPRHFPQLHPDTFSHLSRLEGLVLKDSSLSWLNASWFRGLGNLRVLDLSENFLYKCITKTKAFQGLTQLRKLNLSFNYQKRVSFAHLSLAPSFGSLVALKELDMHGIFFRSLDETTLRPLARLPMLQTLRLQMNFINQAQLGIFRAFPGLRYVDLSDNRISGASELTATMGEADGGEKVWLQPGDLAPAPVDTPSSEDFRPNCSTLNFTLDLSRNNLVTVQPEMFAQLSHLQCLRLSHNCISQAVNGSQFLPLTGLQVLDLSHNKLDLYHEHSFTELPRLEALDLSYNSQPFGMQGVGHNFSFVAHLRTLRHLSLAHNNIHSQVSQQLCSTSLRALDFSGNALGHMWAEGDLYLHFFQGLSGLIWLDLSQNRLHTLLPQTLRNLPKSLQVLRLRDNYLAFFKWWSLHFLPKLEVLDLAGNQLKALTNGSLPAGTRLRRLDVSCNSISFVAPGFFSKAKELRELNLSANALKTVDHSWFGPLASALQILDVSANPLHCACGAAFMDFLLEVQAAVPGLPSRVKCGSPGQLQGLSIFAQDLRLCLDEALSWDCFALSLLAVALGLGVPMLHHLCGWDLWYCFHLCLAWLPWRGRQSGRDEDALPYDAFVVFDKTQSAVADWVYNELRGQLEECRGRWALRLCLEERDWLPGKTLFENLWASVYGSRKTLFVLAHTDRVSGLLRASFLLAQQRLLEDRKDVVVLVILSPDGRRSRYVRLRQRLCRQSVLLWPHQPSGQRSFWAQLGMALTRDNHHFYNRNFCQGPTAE
The experiment can be described thus: TLR9 inhibition reporter assay (HEK-Blue cells, secreted embryonic alkaline phosphatase reporter). Conditions: HEK-Blue cells overexpressing human TLR9, stimulated with ODN2006 5 nM. The method, boiled down:
(§1)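 Agonist-driven SEAP output was measured in HEK-Blue reporter cells carrying human TLR7 (gardiquimod 7.5 μM), TLR8 (R848 15.9 μM) or TLR9 (ODN2006 5 nM). Compounds at 0.05 nM–50 μM final were added 30 min before stimulation at room temperature. After 22 h at 37 °C, percent inhibition was taken against agonist/DMSO wells and a reference inhibitor.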
(In general: A reporter such as luciferase makes a cellular process visible.)

A further experiment deals with T2, human TLR8 (Homo sapiens, UniProt Q9NR97).
T2 construct: host or cells: HEK-Blue cells (HEK293-derived reporter line)
T2 sequence (Q9NR97 27-1041): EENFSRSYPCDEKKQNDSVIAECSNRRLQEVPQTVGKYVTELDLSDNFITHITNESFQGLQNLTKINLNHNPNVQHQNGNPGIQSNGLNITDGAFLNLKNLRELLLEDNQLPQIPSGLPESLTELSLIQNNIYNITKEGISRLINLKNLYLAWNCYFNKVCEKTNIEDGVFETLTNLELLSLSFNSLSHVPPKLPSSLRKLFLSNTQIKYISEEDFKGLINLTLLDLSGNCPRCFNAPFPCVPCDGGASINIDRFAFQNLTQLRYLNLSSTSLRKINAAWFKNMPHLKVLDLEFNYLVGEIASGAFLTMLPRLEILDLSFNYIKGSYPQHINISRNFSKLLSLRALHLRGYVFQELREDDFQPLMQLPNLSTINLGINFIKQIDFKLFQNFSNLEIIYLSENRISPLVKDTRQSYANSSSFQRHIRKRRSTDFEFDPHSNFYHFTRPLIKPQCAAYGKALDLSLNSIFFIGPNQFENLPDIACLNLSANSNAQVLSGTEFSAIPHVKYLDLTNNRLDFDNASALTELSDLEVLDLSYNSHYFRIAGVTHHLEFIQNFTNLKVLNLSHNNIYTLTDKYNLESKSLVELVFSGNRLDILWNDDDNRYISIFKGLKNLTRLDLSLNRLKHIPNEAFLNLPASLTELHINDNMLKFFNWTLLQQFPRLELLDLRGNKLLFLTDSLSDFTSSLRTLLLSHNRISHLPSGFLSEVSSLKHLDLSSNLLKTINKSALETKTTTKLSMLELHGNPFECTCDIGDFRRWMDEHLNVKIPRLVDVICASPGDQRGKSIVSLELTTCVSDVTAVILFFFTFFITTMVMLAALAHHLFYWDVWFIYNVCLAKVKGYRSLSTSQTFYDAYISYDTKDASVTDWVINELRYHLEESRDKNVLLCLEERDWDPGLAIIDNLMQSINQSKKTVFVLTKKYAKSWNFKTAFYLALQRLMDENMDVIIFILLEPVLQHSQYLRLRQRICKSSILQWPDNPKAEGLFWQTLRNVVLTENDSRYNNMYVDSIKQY
Briefly: TLR8 inhibition reporter assay (HEK-Blue cells, secreted embryonic alkaline phosphatase reporter). Conditions: HEK-Blue cells overexpressing human TLR8, stimulated with R848 15.9 μM; read-out: TLR 8 IC50. The procedure, abridged:
as §1

Another experiment has as its target T3, human TLR7 (Homo sapiens, UniProt Q9NYK1).
T3 construct: host or cells: HEK-Blue cells (HEK293-derived reporter line)
T3 sequence (Q9NYK1 27-1049): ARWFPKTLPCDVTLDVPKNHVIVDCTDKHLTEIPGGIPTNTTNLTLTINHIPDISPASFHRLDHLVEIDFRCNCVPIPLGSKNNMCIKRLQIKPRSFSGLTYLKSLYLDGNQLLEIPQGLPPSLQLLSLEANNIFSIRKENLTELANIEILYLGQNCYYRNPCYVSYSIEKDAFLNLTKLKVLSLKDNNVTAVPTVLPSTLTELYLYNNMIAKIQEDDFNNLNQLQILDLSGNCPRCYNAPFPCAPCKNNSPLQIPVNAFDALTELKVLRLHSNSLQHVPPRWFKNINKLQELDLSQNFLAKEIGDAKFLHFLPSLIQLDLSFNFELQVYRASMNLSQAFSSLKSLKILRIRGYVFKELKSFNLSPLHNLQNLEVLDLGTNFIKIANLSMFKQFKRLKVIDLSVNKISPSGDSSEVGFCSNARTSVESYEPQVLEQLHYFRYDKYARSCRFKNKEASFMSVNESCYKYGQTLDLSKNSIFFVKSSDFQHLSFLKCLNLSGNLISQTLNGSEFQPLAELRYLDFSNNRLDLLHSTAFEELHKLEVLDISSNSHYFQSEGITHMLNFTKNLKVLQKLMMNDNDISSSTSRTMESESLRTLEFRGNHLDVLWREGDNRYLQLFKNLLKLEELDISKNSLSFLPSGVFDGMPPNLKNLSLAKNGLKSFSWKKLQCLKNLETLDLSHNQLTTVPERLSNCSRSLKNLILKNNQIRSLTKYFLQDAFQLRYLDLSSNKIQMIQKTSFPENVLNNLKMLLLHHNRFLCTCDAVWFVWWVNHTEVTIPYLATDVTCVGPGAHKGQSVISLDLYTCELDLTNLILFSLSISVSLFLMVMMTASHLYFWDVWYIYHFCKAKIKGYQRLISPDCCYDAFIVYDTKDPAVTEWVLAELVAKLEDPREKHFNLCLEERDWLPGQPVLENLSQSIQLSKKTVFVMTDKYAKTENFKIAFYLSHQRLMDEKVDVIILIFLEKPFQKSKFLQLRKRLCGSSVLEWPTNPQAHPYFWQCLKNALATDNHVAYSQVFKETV
Briefly: TLR7 inhibition reporter assay (HEK-Blue cells, secreted embryonic alkaline phosphatase reporter). Conditions: HEK-Blue cells overexpressing human TLR7, stimulated with gardiquimod 7.5 μM; read-out: TLR 7 IC50. The method, boiled down:
as §1

Where [1] appears, read: 22 hour incubation, reporter readout.

Where two headings read alike, the source gives them in different places.

On to `Cc1cc(-c2ccc(CN3CCC(N(C)C)CC3)cc2)cc2c1nc(-c1ccc(S(C)(=O)=O)cc1)n2C` [Example 385, 1-(4-(1,4-dimethyl-2-(4-(methylsulfonyl)phenyl)-1H-benzo[d]imidazol-6-yl)benzyl)-N,N-dimethylpiperidin-4-amine], for which the IC50 was 180 nM against human TLR9 (setting [1]), 179 nM on human TLR9 (read-out: TLR 9 IC50), 5600 nM at human TLR8 and 1200 nM on human TLR7.
Taken in the same sequence, the figures for `CCN(C)C1CCN(c2ccc(-c3cc(C)c4nc(-c5ccc(S(C)(=O)=O)cc5)n(C)c4c3)cc2)CC1` [Example 386, 1-(4-(1,4-dimethyl-2-(4-(methylsulfonyl)phenyl)-1H-benzo[d]imidazol-6-yl)phenyl)-N-ethyl-N-methylpiperidin-4-amine] were 270 nM, 267 nM, 4400 nM and 1700 nM.
Turning to `Cc1cc(-c2ccc(CN3C[C@H]4CN(C)C[C@H]4C3)c(F)c2)cc2c1nc(-c1ccc(S(C)(=O)=O)cc1)n2C` [Example 388, 6-(3-fluoro-4-((cis-5-methylhexahydropyrrolo[3,4-c]pyrrol-2(1H)-yl)methyl)phenyl)-1,4-dimethyl-2-(4-(methylsulfonyl)phenyl)-1H-benzo[d]imidazole], the concentration for half-maximal inhibition (IC50) on human TLR9 (setting [1]) came out at 230 nM; at human TLR9 (read-out: TLR 9 IC50), 227 nM; at human TLR8, 3200 nM; on human TLR7, 400 nM.
The matching figures for `CCN1CCCN(Cc2ccc(-c3cc(C)c4nc(-c5ccc(S(C)(=O)=O)cc5)n(C)c4c3)cc2F)CC1` [Example 389, 6-(4-((4-ethyl-1,4-diazepan-1-yl)methyl)-3-fluorophenyl)-1,4-dimethyl-2-(4-(methylsulfonyl)phenyl)-1H-benzo[d]imidazole]: 330 nM, 327 nM, 1800 nM and 300 nM.
The matching figures for `Cc1cc(-c2ccc(CN3CCC(N(C)C)CC3)c(F)c2)cc2c1nc(-c1ccc(S(C)(=O)=O)cc1)n2C` [Example 390, 1-(4-(1,4-dimethyl-2-(4-(methylsulfonyl)phenyl)-1H-benzo[d]imidazol-6-yl)-2-fluorobenzyl)-N,N-dimethylpiperidin-4-amine]: 91 nM, 91 nM, 10200 nM and 4200 nM.
The matching figures for `Cc1cc(-c2cc(F)c(CN3CCC(N4CCCC4)CC3)c(F)c2)cc2c1nc(-c1ccc(S(C)(=O)=O)cc1)n2C` [Example 391, 6-(3,5-difluoro-4-((4-(pyrrolidin-1-yl)piperidin-1-yl)methyl)phenyl)-1,4-dimethyl-2-(4-(methylsulfonyl)phenyl)-1H-benzo[d]imidazole]: 180 nM, 178 nM, 11700 nM and 2100 nM.
Regarding `Cc1cc(-c2cc(F)c(CN3CCC(N(C)C)CC3)c(F)c2)cc2c1nc(-c1ccc(S(C)(=O)=O)cc1)n2C` [Example 392, 1-(4-(1,4-dimethyl-2-(4-(methylsulfonyl)phenyl)-1H-benzo[d]imidazol-6-yl)-2,6-difluorobenzyl)-N,N-dimethylpiperidin-4-amine], the IC50 on human TLR9 (setting [1]) worked out at 470 nM; on human TLR9 (read-out: TLR 9 IC50), 466 nM; on human TLR8, 6400 nM; at human TLR7 it was 10200 nM.
For the compound `Cc1cc(-c2ccc(CN3CCC(N(C)C4CC4)CC3)cc2)cc2c1nc(-c1ccc(S(C)(=O)=O)cc1)n2C` [Example 393, N-cyclopropyl-1-(4-(1,4-dimethyl-2-(4-(methylsulfonyl)phenyl)-1H-benzo[d]imidazol-6-yl)benzyl)-N-methylpiperidin-4-amine], the IC50 is 330 nM at human TLR9 (setting [1]), 334 nM on human TLR9 (read-out: TLR 9 IC50), 9500 nM on human TLR8 and > 50000 nM at human TLR7.
Regarding `Cc1cc(-c2ccc(CN3CCC(N(C)C4CC4)CC3)c(F)c2)cc2c1nc(-c1ccc(S(C)(=O)=O)cc1)n2C` [Example 394, N-cyclopropyl-1-(4-(1,4-dimethyl-2-(4-(methylsulfonyl)phenyl)-1H-benzo[d]imidazol-6-yl)-2-fluorobenzyl)-N-methylpiperidin-4-amine], the concentration for half-maximal inhibition (IC50) is 560 nM against human TLR9 (setting [1]), 563 nM on human TLR9 (read-out: TLR 9 IC50), 5700 nM at human TLR8 and > 50000 nM at human TLR7.
Taken in the same sequence, the figures for `Cc1cc(-c2ccc(CN3CC4(C3)CN(C(C)C)C4)cc2)cc2c1nc(-c1ccc(S(C)(=O)=O)cc1)n2C` [Example 399, 6-(4-((6-isopropyl-2,6-diazaspiro[3.3]heptan-2-yl)methyl)phenyl)-1,4-dimethyl-2-(4-(methylsulfonyl)phenyl)-1H-benzo[d]imidazole] were 97 nM, 97 nM, 2700 nM and 1000 nM.

For orientation: IC50 means the concentration that inhibits the measured activity by half.
